Tested on: RKO p27 uninduced (proliferating)
Test: Alamar Blue cell viability assay, anti-proliferative / cytotoxic activity on proliferating cells
Assay type: cell-based
Settings: Homo sapiens, RKOp27; RKO colon cancer cells, absence of the inducer Ponasterone A, 72 hours incubation; read-out: -log EC50 [mol/l] RKO p27 uninduced (proliferating) (converted)
Method: The anti-proliferative / cytotoxic activity of the compounds described herein can be tested on subclones of RKO human colon adenocarcinoma cells (Schmidt et al., Oncogene 19, 2423-2429; 2000) using the Alamar Blue cell viability assay (described in O'Brien et al. Eur J Biochem 267, 5421-5426, 2000). The compounds are dissolved as 10 mM solutions in DMSO and subsequently diluted in semi-logarithmic steps. DMSO dilutions are further diluted 1:100 v:v into Dulbecco's modified Eagle's medium (DMEM) containing 10% fetal calf serum to a final concentration twice as much as the final concentration in the test. RKO subclones are seeded into 96 well flat bottom plates at a density of 4000 cells per well in a volume of 50 µl per well. 24 hours after seeding the 50 µl each of the compound dilutions in DMEM medium are added into each well of the 96 well plate. Each compound dilution is tested as triplicates. Wells containing untreated control cells are filled with 50 µl DMEM medium containing 1% DMSO. The cells are then incubated with the substances for 72 hours at 37°C in a humidified atmosphere containing 5% carbon dioxide. To determine the viability of the cells, 10 µl of an Alamar Blue solution (Biosource) are added and the fluorescence is measured at an extinction of 544 nm and an emission of 590 nm. For the calculation of the cell viability the emission value from untreated cells is set as 100% viability and the emission rates of treated cells are set in relation to the values of untreated cells. Viabilities are expressed as % values. The Graphpad Prism program is used for the calculation of EC50 values for anti-proliferative / cytotoxic activity out of the obtained dose-response curves.
To determine the cell cycle specific mode of action, subclones of RKO colon adenocarcinoma cells (RKOp21 or RKOp27 as described by Schmidt et al. in Oncogene 19, 2423-2429; 2000) are seeded into 96 well flat bottom plates at a density of 16000 cells per well in a volume of 50 µl per well in DMEM growth medium with 10% FCS containing 10 µM Ponasterone A. 24 hours after seeding the 50 µl each of the compound dilutions in DMEM medium are added into each well of the 96-well plate. Each compound dilution is tested as triplicates. Wells containing untreated control cells are filled with 50 µl DMEM medium containing 1% DMSO. The cells are then incubated with the substances for 72 hours at 37°C in a humidified atmosphere containing 5% carbon dioxide. To determine the viability of the cells, 10 µl of an Alamar Blue solution (Biosource) are added and the fluorescence is measured at an extinction of 544 nm and an emission of 590 nm. For the calculation of the cell viability the emission value from untreated cells is set as 100% viability and the emission rates of treated cells are set in relation to the values of untreated cells. Viabilities are expressed as % values. The Graphpad Prism program (GraphPad Software, Inc) is used for the calculation of EC50 values out of the obtained dose-response curves. Viability is compared of proliferating cells grown in the absence of the inducer Ponasterone A, versus viability of cells arrested by the expression of ectopic p27Kip1 induced by Ponasterone A.

| Structure (SMILES) | EC50 [nM] |
| --- | --- |
| O=C1[C@@H]2Cc3c([nH]c4ccccc34)[C@@H](c3cccc(O)c3)N2C(=O)CN1CCN1CCCC1 (racemic) [Example 6, (6RS,12aSR)-6-(3-Hydroxy-phenyl)-2-(2-pyrrolidin-1-yl-ethyl)-2,3,6,7,12,12a-hexahydro-pyrazino[1',2':1,6]pyrido[3,4-b]indole-1,4-dione] | 100 to 1000 |
| O=C1[C@@H]2Cc3c([nH]c4ccccc34)[C@@H](c3cccc(O)c3)N2C(=O)CN1CCN1CCCCC1 (racemic) [Example 7, (6RS,12aSR)-6-(3-Hydroxy-phenyl)-2-(2-piperidin-1-yl-ethyl)-2,3,6,7,12,12a-hexahydro-pyrazino[1',2':1,6]pyrido[3,4-b]indole-1,4-dione] | 100 to 1000 |
| COc1ccc2[nH]c3c(c2c1)C[C@@]1(C)C(=O)N(CCN(C)C)CC(=O)N1[C@@H]3c1cccc(O)c1 (racemic) [Example 8, (6RS,12aSR)-2-(2-Dimethylamino-ethyl)-6-(3-hydroxy-phenyl)-10-methoxy-12a-methyl-2,3,6,7,12,12a-hexahydro-pyrazino[1',2':1,6]pyrido[3,4-b]indole-1,4-dione] | ≤ 100 |
| COc1ccc2[nH]c3c(c2c1)C[C@@]1(C)C(=O)N(CCN2CCCC2)CC(=O)N1[C@@H]3c1cccc(O)c1 (racemic) [Example 9, (6RS,12aSR)-6-(3-Hydroxy-phenyl)-10-methoxy-12a-methyl-2-(2-pyrrolidin-1-yl-ethyl)-2,3,6,7,12,12a-hexahydro-pyrazino[1',2':1,6]pyrido[3,4-b]indole-1,4-dione] | ≤ 100 |
| COc1ccc2[nH]c3c(c2c1)C[C@@]1(C)C(=O)N(C)CC(=O)N1[C@@H]3c1cccc(O)c1 (racemic) [Example 10, (6RS,12aSR)-6-(3-Hydroxy-phenyl)-10-methoxy-2,12a-dimethyl-2,3,6,7,12,12a-hexahydro-pyrazino[1',2':1,6]pyrido[3,4-b]indole-1,4-dione] | 100 to 1000 |
| COc1ccc2[nH]c3c(c2c1)C[C@@]1(C)C(=O)N(CCN2CCCCC2)CC(=O)N1[C@@H]3c1cccc(O)c1 (racemic) [Example 11, (6RS,12aSR)-6-(3-Hydroxy-phenyl)-10-methoxy-12a-methyl-2-(2-piperidin-1-yl-ethyl)-2,3,6,7,12,12a-hexahydro-pyrazino[1',2':1,6]pyrido[3,4-b]indole-1,4-dione] | ≤ 100 |
| COc1ccc2[nH]c3c(c2c1)C[C@@]1(C)C(=O)N(CCCN(C)C)CC(=O)N1[C@@H]3c1cccc(O)c1 (racemic) [Example 12, (6RS,12aSR)-2-(3-Dimethylamino-n-propyl)-6-(3-hydroxy-phenyl)-10-methoxy-12a-methyl-2,3,6,7,12,12a-hexahydro-pyrazino[1',2':1,6]pyrido[3,4-b]indole-1,4-dione] | ≤ 100 |
| COc1ccc2[nH]c3c(c2c1)C[C@@]1(C)C(=O)N(CCN2CCOCC2)CC(=O)N1[C@@H]3c1cccc(O)c1 (racemic) [Example 13, (6RS,12aSR)-6-(3-Hydroxy-phenyl)-10-methoxy-12a-methyl-2-(2-morpholin-4-yl-ethyl)-2,3,6,7,12,12a-hexahydro-pyrazino[1',2':1,6]pyrido[3,4-b]indole-1,4-dione] | 100 to 1000 |
| COc1ccc2[nH]c3c(c2c1)C[C@@]1(C)C(=O)N(CCCN2CCOCC2)CC(=O)N1[C@@H]3c1cccc(O)c1 (racemic) [Example 14, (6RS,12aSR)-6-(3-Hydroxy-phenyl)-10-methoxy-12a-methyl-2-(3-morpholin-4-yl-n-propyl)-2,3,6,7,12,12a-hexahydro-pyrazino[1',2':1,6]pyrido[3,4-b]indole-1,4-dione] | 100 to 1000 |
| CCN(CC)CCN1CC(=O)N2[C@H](c3cccc(O)c3)c3[nH]c4ccc(OC)cc4c3C[C@@]2(C)C1=O (racemic) [Example 15, (6RS,12aSR)-2-(2-Diethylamino-ethyl)-6-(3-hydroxy-phenyl)-10-methoxy-12a-methyl-2,3,6,7,12,12a-hexahydro-pyrazino[1',2':1,6]pyrido[3,4-b]indole-1,4-dione] | 100 to 1000 |
| CCN(CC)CCCN1CC(=O)N2[C@H](c3cccc(O)c3)c3[nH]c4ccc(OC)cc4c3C[C@@]2(C)C1=O (racemic) [Example 16, (6RS,12aSR)-2-(3-Diethylamino-n-propyl)-6-(3-hydroxy-phenyl)-10-methoxy-12a-methyl-2,3,6,7,12,12a-hexahydro-pyrazino[1',2':1,6]pyrido[3,4-b]indole-1,4-dione] | ≤ 100 |
| COc1ccc2[nH]c3c(c2c1)C[C@@]1(C)C(=O)N(CCN(C(C)C)C(C)C)CC(=O)N1[C@@H]3c1cccc(O)c1 (racemic) [Example 19, (6RS,12aSR)-2-(2-Diisopropylamino-ethyl)-6-(3-hydroxy-phenyl)-10-methoxy-12a-methyl-2,3,6,7,12,12a-hexahydro-pyrazino[1',2':1,6]pyrido[3,4-b]indole-1,4-dione] | ≤ 100 |
| COc1ccc2[nH]c3c(c2c1)C[C@@]1(C)C(=O)N(CCNC(C)C)CC(=O)N1[C@@H]3c1cccc(O)c1 (racemic) [Example 25, (6RS,12aSR)-6-(3-Hydroxy-phenyl)-2-(2-isopropylamino-ethyl)-10-methoxy-12a-methyl-2,3,6,7,12,12a-hexahydro-pyrazino[1',2':1,6]pyrido[3,4-b]indole-1,4-dione] | ≤ 100 |
| COc1ccc2[nH]c3c(c2c1)C[C@@]1(C)C(=O)N(CCCN2CCCCC2)CC(=O)N1[C@@H]3c1cccc(O)c1 (racemic) [Example 27, (6RS,12aSR)-6-(3-Hydroxy-phenyl)-10-methoxy-12a-methyl-2-(3-piperidin-1-yl-n-propyl)-2,3,6,7,12,12a-hexahydro-pyrazino[1',2':1,6]pyrido[3,4-b]indole-1,4-dione] | 100 to 1000 |
| COc1ccc2[nH]c3c(c2c1)C[C@@]1(C)C(=O)N(CCCN2CCCC2)CC(=O)N1[C@@H]3c1cccc(O)c1 (racemic) [Example 28, (6RS,12aSR)-6-(3-Hydroxy-phenyl)-10-methoxy-12a-methyl-2-(3-pyrrolidin-1-yl-n-propyl)-2,3,6,7,12,12a-hexahydro-pyrazino[1',2':1,6]pyrido[3,4-b]indole-1,4-dione] | 100 to 1000 |
